Measurements as given in ChEMBL document CHEMBL5244260, “Aldose reductase and protein tyrosine phosphatase 1B inhibitors as a promising therapeutic approach for diabetes mellitus” (Eur J Med Chem, 2020).
Each block holds one compound with its values, some of them ahead of it.

Tests used:
[1] = target: T1, Tyrosine-protein phosphatase non-receptor type 1 (Homo sapiens, UniProt P18031); assay: Inhibition of human recombinant PTP1B expressed in Escherichia coli BL21 (DE3) using pNPP as substrate by high-throughput screening assay
T1 sequence (P18031 whole entry): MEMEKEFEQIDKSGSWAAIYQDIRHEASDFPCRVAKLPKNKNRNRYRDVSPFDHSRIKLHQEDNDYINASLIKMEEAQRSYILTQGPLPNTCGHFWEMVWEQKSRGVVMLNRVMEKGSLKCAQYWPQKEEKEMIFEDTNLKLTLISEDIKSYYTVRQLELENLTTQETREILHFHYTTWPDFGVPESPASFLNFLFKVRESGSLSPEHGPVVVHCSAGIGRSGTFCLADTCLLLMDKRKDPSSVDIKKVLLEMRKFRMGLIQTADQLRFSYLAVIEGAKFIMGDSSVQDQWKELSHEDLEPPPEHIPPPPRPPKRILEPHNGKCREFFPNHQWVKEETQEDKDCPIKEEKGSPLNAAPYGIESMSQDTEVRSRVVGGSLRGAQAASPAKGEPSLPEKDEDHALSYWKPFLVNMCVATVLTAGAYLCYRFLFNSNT

Homo sapiens [2] = organism: Homo sapiens; assay: Selectivity ratio of IC50 for human PTP1B (1 to 298 residues) expressed in Escherichia coli BL21 (DE3) to IC50 for TCPTP (unknown origin)
[3] = target: T1, Tyrosine-protein phosphatase non-receptor type 1; assay: Inhibition of human PTP1B (1 to 298 residues) expressed in Escherichia coli using FDP as substrate by microplate reader
[4] = target: T2, Aldo-keto reductase family 1 member B1 (Homo sapiens, UniProt P15121); assay: Inhibition of Aldose reductase in human muscle tissue using D,L-glyceraldehyde as substrate in presence of NADPH by spectrophotometric assay; type: tissue-based
Homo sapiens [5] = organism: Homo sapiens; assay: Selectivity ratio of Ki for human PTP1B expressed in Escherichia coli BL21 (DE3) to Ki for LAR (unknown origin)
Homo sapiens [6] = organism: Homo sapiens; assay: Selectivity ratio of Ki for human PTP1B expressed in Escherichia coli BL21 (DE3) to Ki for TCPTP (unknown origin)
Homo sapiens [7] = organism: Homo sapiens; assay: Selectivity ratio of Ki for human PTP1B expressed in Escherichia coli BL21 (DE3) to Ki for Calcineurin (unknown origin)
Homo sapiens [8] = organism: Homo sapiens; assay: Selectivity ratio of Ki for human PTP1B expressed in Escherichia coli BL21 (DE3) to Ki for SHP-2 (unknown origin)
Homo sapiens [9] = organism: Homo sapiens; assay: Selectivity ratio of Ki for human PTP1B expressed in Escherichia coli BL21 (DE3) to Ki for CD45 (unknown origin)
[10] = Inhibition of ALR2 in Sprague-Dawley rat lens using D,L-glyceraldehyde as substrate preincubated for 10 mins in presence of NADPH followed by substrate addition and measured after 5 mins by spectrophotometric assay; type: tissue-based
[11] = target: T2, Aldo-keto reductase family 1 member B1; assay: Inhibition of Aldose reductase (unknown origin)
[12] = Inhibition of human recombinant ALR1 expressed in Escherichia coli by Coomassie reagent assay
[13] = target: T3, Aldo-keto reductase family 1 member B1 (Rattus norvegicus, UniProt P07943); assay: Inhibition of recombinant Aldose reductase in rat lens using D,L-glyceraldehyde as substrate in presence of NADPH measured after 4 mins by spectrophotometric assay; type: tissue-based
[14] = target: Dual specificity protein phosphatase 3 (Homo sapiens, UniProt P51452); assay: Inhibition of human recombinant VHR expressed in Escherichia coli BL21 (DE3) assessed as inhibition constant using pNPP as substrate by stopped-flow spectrophotometer
Chain of Dual specificity protein phosphatase 3 (P51452 whole entry, the tested form may be a part): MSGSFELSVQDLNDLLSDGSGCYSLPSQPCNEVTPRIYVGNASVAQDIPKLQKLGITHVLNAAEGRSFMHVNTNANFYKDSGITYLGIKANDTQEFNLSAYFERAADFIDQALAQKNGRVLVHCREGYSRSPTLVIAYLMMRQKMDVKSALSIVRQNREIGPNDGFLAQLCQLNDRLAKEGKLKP

[15] = target: T1, Tyrosine-protein phosphatase non-receptor type 1; assay: Inhibition of human recombinant PTP1B (1 to 321 residues) expressed in Escherichia coli BL21 (DE3) assessed as inhibition constant using pNPP as substrate by Michaelis-Menten analysis
[16] = target: Receptor-type tyrosine-protein phosphatase alpha (Homo sapiens, UniProt P18433); assay: Inhibition of human PTPalpha assessed as inhibition constant
Chain of Receptor-type tyrosine-protein phosphatase alpha (P18433 whole entry): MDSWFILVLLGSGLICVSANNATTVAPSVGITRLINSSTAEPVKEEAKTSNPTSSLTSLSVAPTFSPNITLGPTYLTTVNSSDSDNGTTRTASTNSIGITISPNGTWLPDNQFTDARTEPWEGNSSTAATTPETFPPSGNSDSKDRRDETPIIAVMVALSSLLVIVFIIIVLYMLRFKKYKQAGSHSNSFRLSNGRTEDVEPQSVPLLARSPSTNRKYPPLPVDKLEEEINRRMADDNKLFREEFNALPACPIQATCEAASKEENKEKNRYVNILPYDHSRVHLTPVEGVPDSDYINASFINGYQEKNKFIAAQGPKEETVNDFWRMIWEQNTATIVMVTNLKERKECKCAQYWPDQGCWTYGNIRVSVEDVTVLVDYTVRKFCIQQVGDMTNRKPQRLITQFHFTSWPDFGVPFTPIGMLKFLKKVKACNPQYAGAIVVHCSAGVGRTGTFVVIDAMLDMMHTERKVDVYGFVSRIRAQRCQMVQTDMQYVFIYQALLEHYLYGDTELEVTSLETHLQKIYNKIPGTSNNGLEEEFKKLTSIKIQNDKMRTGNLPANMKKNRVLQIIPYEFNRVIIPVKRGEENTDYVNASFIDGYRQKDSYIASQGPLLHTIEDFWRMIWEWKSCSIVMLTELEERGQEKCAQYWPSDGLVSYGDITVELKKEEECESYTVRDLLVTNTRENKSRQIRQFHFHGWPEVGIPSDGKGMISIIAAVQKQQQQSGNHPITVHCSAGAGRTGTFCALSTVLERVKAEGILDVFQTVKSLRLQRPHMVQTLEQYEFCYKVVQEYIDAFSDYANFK

[17] = target: Receptor-type tyrosine-protein phosphatase F (Rattus norvegicus, UniProt Q64604); assay: Inhibition of rat recombinant LAR expressed in Escherichia coli assessed as inhibition constant using pNPP as substrate incubated for 5 mins by […]
Chain of Receptor-type tyrosine-protein phosphatase F (Q64604 whole entry): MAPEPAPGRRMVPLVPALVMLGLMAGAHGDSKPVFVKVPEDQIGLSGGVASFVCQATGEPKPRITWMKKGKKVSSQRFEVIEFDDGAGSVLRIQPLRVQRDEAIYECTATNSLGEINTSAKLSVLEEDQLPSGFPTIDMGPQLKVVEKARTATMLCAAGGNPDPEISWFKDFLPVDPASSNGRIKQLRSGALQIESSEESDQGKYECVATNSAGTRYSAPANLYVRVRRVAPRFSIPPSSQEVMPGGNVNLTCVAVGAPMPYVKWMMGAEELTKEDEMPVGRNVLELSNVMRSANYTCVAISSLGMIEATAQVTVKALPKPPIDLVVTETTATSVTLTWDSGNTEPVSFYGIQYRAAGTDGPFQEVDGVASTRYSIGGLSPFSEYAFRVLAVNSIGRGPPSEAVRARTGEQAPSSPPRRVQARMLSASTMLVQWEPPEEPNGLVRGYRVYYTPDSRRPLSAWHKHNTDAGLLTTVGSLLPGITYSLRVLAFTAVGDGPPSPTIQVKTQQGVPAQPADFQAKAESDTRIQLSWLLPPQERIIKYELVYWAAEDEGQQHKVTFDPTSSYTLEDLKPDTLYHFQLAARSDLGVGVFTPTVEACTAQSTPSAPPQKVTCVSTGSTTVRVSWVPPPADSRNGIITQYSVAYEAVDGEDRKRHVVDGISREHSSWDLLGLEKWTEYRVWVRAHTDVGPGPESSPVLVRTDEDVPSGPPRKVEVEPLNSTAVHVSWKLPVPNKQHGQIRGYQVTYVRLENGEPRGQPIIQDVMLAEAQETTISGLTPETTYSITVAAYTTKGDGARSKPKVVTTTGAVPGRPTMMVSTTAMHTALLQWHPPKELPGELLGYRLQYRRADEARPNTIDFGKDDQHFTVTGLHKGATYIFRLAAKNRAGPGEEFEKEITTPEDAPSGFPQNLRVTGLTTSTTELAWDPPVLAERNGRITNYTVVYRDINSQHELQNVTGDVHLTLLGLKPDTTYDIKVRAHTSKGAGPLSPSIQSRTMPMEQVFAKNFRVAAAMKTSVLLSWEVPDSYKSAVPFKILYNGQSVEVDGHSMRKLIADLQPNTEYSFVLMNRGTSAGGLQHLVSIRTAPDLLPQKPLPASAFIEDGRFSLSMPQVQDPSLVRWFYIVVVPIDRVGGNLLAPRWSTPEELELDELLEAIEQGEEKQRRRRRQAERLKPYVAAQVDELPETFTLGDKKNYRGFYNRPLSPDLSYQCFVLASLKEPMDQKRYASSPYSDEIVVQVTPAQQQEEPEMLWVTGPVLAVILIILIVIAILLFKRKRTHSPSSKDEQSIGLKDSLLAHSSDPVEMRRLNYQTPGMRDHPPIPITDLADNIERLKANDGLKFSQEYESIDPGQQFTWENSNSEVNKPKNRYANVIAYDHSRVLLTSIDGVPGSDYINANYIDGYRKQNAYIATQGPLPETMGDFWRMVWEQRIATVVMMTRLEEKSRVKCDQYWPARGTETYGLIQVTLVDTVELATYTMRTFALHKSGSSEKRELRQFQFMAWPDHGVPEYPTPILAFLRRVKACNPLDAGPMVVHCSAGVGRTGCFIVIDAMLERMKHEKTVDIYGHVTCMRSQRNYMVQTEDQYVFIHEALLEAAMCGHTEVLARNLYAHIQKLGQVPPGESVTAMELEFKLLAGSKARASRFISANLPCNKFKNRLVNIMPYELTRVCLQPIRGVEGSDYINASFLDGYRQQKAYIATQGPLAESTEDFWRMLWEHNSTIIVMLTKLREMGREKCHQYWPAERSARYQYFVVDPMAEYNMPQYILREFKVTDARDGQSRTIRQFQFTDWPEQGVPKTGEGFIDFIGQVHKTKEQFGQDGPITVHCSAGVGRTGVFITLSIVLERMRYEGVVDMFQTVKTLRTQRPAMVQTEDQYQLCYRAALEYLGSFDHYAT

[18] = Inhibition of ALR2 in Wistar rat lens using D,L-glyceraldehyde as substrate preincubated for 10 mins in presence of NADPH followed by substrate addition and measured after 5 mins by spectrophotometric assay; type: tissue-based
[19] = target: T3, Aldo-keto reductase family 1 member B1; assay: Inhibition of ALR in Fischer-344 rat lens using D,L-glyceraldehyde as substrate in presence of NADPH measured after 3 mins by spectrophotometric assay; type: tissue-based
[20] = target: T1, Tyrosine-protein phosphatase non-receptor type 1; assay: Inhibition of human recombinant PTP1B expressed in Escherichia coli using pNPP as substrate by microplate reader assay
[21] = target: T2, Aldo-keto reductase family 1 member B1; assay: Inhibition of human ALR2 expressed in Escherichia coli BL21 (DE3) assessed as inhibition constant using D,L-glyceraldehyde as substrate in presence of NADPH by Michaelis-Menten analysis
[22] = target: Aldo-keto reductase family 1 member B1 (Sus scrofa, UniProt P80276); assay: Inhibition of ALR2 in pig lens using D,L-glyceraldehyde as substrate preincubated for 4 mins in presence of NADPH followed by substrate addition and measured after 4 mins by spectrophotometric assay; type: tissue-based

Compound: Cc1cc(/C=C2/S/C(=N/c3ccc(Cl)cc3)NC2=O)c(C)n1-c1cc(C(=O)O)cc(C(=O)O)c1
IC50 [1]: 1.6 µM

Compound: COC(CC(C)C)c1ccc2ccc(CC(Cc3ccc(C(F)(F)P(=O)(O)O)cc3)(c3ccccc3)n3nnc4ccccc43)c(P(=O)(O)O)c2n1 (centres undefined)
Ratio IC50 (Homo sapiens [2]): 7.2
IC50 [3]: 0.005 µM

Compound: Cc1ccc(F)c(N(C)S(=O)(=O)C[N+](=O)[O-])c1
IC50 [4]: 0.35 µM

Compound: O=[N+]([O-])c1cc(Br)cc2c1NC=NS2(=O)=O
IC50 [11]: 4.6 µM

Compound: COc1ccc2c(c1)C=Cc1cc(OC)ccc1C2/C=C1\SC(=O)NC1=O
IC50 [13]: 3.4 µM

Compound: O=C(CCc1ccc(C(F)(F)P(=O)(O)O)cc1)Nc1cc(NC(=O)CCc2ccc(C(F)(F)P(=O)(O)O)cc2)cc(C(=O)NCCc2ccc(C(=O)O)cc2)c1
Ki [14]: 3600 µM
Ki [15]: 0.93 µM
Ki [16]: 120 µM
Ki [17]: 100 µM

Compound: O=C(O)CCCCCN1N=C2c3ccsc3CCC2CC1=O (centres undefined)
IC50 [22]: 7.6 µM

More lines, now with the values ahead:

Ratio Ki (Homo sapiens [5]): 36
Ratio Ki (Homo sapiens [6]): 2
Ratio Ki (Homo sapiens [7]): > 13000
Ratio Ki (Homo sapiens [8]): 104
Ratio Ki (Homo sapiens [9]): 2700
Compound: CC(=O)N[C@@H](Cc1ccc(N(C(=O)C(=O)O)c2ccccc2C(=O)O)c2ccccc12)C(=O)NCCCCCOc1cc2ccccc2cc1C(=O)O

IC50 [10]: 0.36 µM
Compound: O=C(O)Cn1c2ccccc2n2c(=O)c(=O)n(Cc3ccccc3)nc12

IC50 [12]: 33 µM
Compound: O=C(O)COc1cc(F)ccc1C(=S)NCc1ccc(Br)cc1F

IC50 [12]: 35 µM
Compound: O=C(O)COc1cc(F)ccc1C(=S)NCc1cccc([N+](=O)[O-])c1

IC50 [18]: 0.094 µM
Compound: O=C(O)CC1=CN(/C=C/c2ccc(O)cc2)S(=O)(=O)c2ccccc21

IC50 [19]: 0.049 µM
Compound: O=C(O)Cn1ccc(-c2nc3ccccc3s2)c1

IC50 [19]: 0.045 µM
Compound: O=C(O)Cn1cc(-c2nc3ccccc3s2)cc1C(=O)c1ccccc1

IC50 [20]: 2.48 µM
Compound: CC(=C\c1csc([C@@H](Cc2ccc(OCc3ccccc3)cc2)NC(=O)CC2CCCCC2)n1)/C=C(\C)C(=O)O

Ki [21]: 0.107 µM
Compound: N#Cc1ccc(CNC(=O)c2ccc(Cl)cc2OCC(=O)O)cc1[N+](=O)[O-]
